Measured values as given in the CheMixHub viscosity set.
± gives the uncertainty stated by the source.

Assay: xn = mol fraction of the nth substance listed

CCCO + CO
Details	viscosity [mPa·s]
293.15 K, 101 kPa, x2 = 0.25	1.379 ± 0.017
293.15 K, 101 kPa, x2 = 0.5	1.015 ± 0.013
293.15 K, 101 kPa, x2 = 0.75	0.825 ± 0.01
293.15 K, 101.3 kPa, x2 = 0.174	1.78 ± 0.03
293.15 K, 101.3 kPa, x2 = 0.339	1.45 ± 0.02
293.15 K, 101.3 kPa, x2 = 0.51	1.16 ± 0.02
293.15 K, 101.3 kPa, x2 = 0.741	0.857 ± 0.012
293.15 K, 101.3 kPa, x2 = 0.873	0.711 ± 0.01
298.15 K, 101 kPa, x2 = 0.25	1.243 ± 0.016
298.15 K, 101 kPa, x2 = 0.5	0.931 ± 0.012
298.15 K, 101 kPa, x2 = 0.75	0.775 ± 0.01
298.15 K, 101.33 kPa, x2 = 0.1414	1.672 ± 0.055
298.15 K, 101.33 kPa, x2 = 0.2419	1.483 ± 0.049
298.15 K, 101.33 kPa, x2 = 0.3419	1.315 ± 0.044
298.15 K, 101.33 kPa, x2 = 0.4462	1.159 ± 0.039
298.15 K, 101.33 kPa, x2 = 0.5137	1.067 ± 0.036
298.15 K, 101.33 kPa, x2 = 0.5731	0.992 ± 0.034
298.15 K, 101.33 kPa, x2 = 0.7216	0.825 ± 0.029
298.15 K, 101.33 kPa, x2 = 0.8038	0.744 ± 0.026
298.15 K, 101.33 kPa, x2 = 0.8805	0.662 ± 0.024
303.15 K, 101 kPa, x2 = 0.25	1.128 ± 0.014
303.15 K, 101 kPa, x2 = 0.5	0.856 ± 0.011
303.15 K, 101 kPa, x2 = 0.75	0.717 ± 0.009
308.15 K, 101 kPa, x2 = 0.25	1.028 ± 0.013
308.15 K, 101 kPa, x2 = 0.5	0.788 ± 0.01
308.15 K, 101 kPa, x2 = 0.75	0.663 ± 0.008
313.15 K, 101 kPa, x2 = 0.25	0.938 ± 0.012
313.15 K, 101 kPa, x2 = 0.5	0.728 ± 0.009
313.15 K, 101 kPa, x2 = 0.75	0.615 ± 0.008
313.15 K, 101.3 kPa, x2 = 0.174	1.17 ± 0.02
313.15 K, 101.3 kPa, x2 = 0.339	0.986 ± 0.014
313.15 K, 101.3 kPa, x2 = 0.51	0.822 ± 0.012
313.15 K, 101.3 kPa, x2 = 0.741	0.624 ± 0.009
313.15 K, 101.3 kPa, x2 = 0.873	0.53 ± 0.008
318.15 K, 101 kPa, x2 = 0.25	0.859 ± 0.011
318.15 K, 101 kPa, x2 = 0.5	0.673 ± 0.008
318.15 K, 101 kPa, x2 = 0.75	0.571 ± 0.007
323.15 K, 101 kPa, x2 = 0.25	0.787 ± 0.01
323.15 K, 101 kPa, x2 = 0.5	0.623 ± 0.008
323.15 K, 101 kPa, x2 = 0.75	0.531 ± 0.007

COCCOCCOC + CO
viscosity [mPa·s], 100 kPa
Details	293.15 K	298.15 K	303.15 K
x2 = 0.056	1.064 ± 0.043	0.984 ± 0.04	0.903 ± 0.037
x2 = 0.1076	1.05 ± 0.043	0.97 ± 0.039	0.89 ± 0.036
x2 = 0.202	1.015 ± 0.041	0.94 ± 0.038	0.863 ± 0.035
x2 = 0.2929	0.99 ± 0.04	0.916 ± 0.037	0.84 ± 0.034
x2 = 0.3965	0.951 ± 0.039	0.882 ± 0.036	0.808 ± 0.033
x2 = 0.4979	0.909 ± 0.037	0.843 ± 0.034	0.775 ± 0.031
x2 = 0.5993	0.863 ± 0.035	0.8 ± 0.032	0.735 ± 0.03
x2 = 0.6891	0.814 ± 0.033	0.756 ± 0.031	0.693 ± 0.028
x2 = 0.7967	0.747 ± 0.03	0.697 ± 0.028	0.641 ± 0.026
x2 = 0.8412	0.718 ± 0.029	0.669 ± 0.027	0.615 ± 0.025
x2 = 0.8996	0.674 ± 0.027	0.629 ± 0.025	0.578 ± 0.023
x2 = 0.948	0.637 ± 0.026	0.595 ± 0.024	0.546 ± 0.022
